Results from patent publication US20260297070A1, “CYCLIC [COMPOUND LEFT OUT] WRN INHIBITORS” (Nimbus Wadjet, Inc., priority 2023, published 2026).

What follows are molecules tested against T1, human Werner helicase (WRN-BV08, Uniprot Q14191, amino acids 517-1235 with L1074F point mutation) (Homo sapiens, UniProt Q14191, L1074F) (assay: WRN (BV08) ADP-Glo Assay). Conditions: 0.15 nM WRN, 5 μM ATP, 0.1 nM DNA duplex, 15 min preincubation, 60 min at 25° C., pH 7.5, 1% DMSO; read-out: ADP-Glo_hWRN_IC50.
T1 construct: Uniprot Q14191, amino acids 517-1235 with L1074F point mutation; TEV-cleavable 8×His (C, cleaved yes); made in house; host or cells: Sf9 insect cells (baculovirus)
T1 sequence (Q14191 with tags, fused parts or gaps L1074F limits assumed): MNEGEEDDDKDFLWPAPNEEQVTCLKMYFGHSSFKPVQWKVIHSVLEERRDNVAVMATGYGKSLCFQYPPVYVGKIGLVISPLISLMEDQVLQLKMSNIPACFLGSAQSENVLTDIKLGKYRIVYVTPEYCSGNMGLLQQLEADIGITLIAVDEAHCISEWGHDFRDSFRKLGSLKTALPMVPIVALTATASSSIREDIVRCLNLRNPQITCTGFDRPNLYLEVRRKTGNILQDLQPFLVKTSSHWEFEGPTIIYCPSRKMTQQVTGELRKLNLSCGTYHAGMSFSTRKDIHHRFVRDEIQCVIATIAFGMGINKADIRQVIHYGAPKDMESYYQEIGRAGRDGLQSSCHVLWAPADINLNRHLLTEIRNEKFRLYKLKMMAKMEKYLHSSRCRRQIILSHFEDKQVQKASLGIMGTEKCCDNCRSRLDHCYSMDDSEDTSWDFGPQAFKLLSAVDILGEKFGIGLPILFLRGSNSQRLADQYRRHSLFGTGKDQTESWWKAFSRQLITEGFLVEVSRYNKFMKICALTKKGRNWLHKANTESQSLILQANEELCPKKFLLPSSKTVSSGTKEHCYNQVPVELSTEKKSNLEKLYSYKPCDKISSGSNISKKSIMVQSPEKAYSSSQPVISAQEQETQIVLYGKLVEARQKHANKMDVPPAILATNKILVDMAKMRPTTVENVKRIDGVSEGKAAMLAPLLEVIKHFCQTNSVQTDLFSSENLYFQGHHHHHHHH
Type: biochemical
Source text: Example 2: WRN (BV08) ADP-Glo Assay Protocol
Bovine skin gelatin (BSG), dimethyl sulfoxide (DMSO), Pluronic F-127 and Tris(2-carboxyethyl)phosphine hydrochloride solution (TCEP) were purchased from Sigma-Aldrich at the highest level of purity possible. Bicine buffer solution was purchased from Alfa Aesar and compound NSC-617145 was purchased from Tocris. DNA duplex was synthesized at BGI (Shenzhen, China) and was composed of strand 1 with the sequence 5′-[…]-3′ (SEQ ID NO.: 1) and strand 2 with the sequence 5′-[…]-3′ (SEQ ID NO.: 2). DNA strands were annealed by heating to 95° C. for 5 minutes followed by slow cooling to room temperature. Compounds in 100% DMSO (0.1 μl) were spotted into a 384-well white polystyrene Optiplate-384 (Perkin Elmer) assay plate using a LabCyte Echo 550 (Agilent). DMSO (0.1 μl) was added to columns 12, rows A-H and column 24, rows I-P for the maximum signal control. Compound NSC-617145 (0.1 μl) was added to columns 12, rows I-P and 24, rows A-H for the minimum signal control (100% inhibition). Compounds/DMSO were preincubated for 15 minutes at 25° C. with 5 uL 2×WRN (BV08), prepared as described below, in assay buffer containing 20 mM Bicine (pH=7.5), 1 mM MgCl2, 10 mM KCl, 0.1% Pluronic F-127, 0.005% BSG, 1 mM TCEP. The reaction was initiated by the addition of 5 μl 2× substrate mixture in assay buffer and incubated for 60 minutes at 25° C. The final concentrations of the assay components were 0.15 nM WRN, 5 μM ATP, and 0.1 nM DNA duplex. The final DMSO concentration was 1% and the reference compound concentration (NSC-617145) used for the minimal signal control was 20 μM. The reaction was stopped by the addition of the ADP-Glo Kit components (Promega) as directed and the relative luminescence units (RLU) were read on an Envision 2104 (Perkin Elmer).
% Inhibition Calculation:
Where RLU=relative luminescence units, sample=signal in sample well, and MIN and MAX are the respective minimum and maximum signal controls.
Four-Parameter IC50 Fit Equation:
Where top and bottom are normally allowed to float but may be fixed at 100 or 0 respectively in a 3-parameter fit. Y is the % inhibition and X is the compound concentration.
Molecular Biology and virus production. The DNA encoding human Werner helicase (Uniprot Q14191, amino acids 517-1235 with L1074F point mutation) was generated with codon-optimization for E. coli expression and subcloned into the pFastBac vector with a TEV cleavable 8×His tag (WRN-BV08). The baculovirus from the expression plasmid WRN-BV08 was generated from transfection and amplification following the manufacturer's instructions.
Sf9 cells grown in SF900II media were infected with 1:200 WRN-BV08 P2 virus and incubated for protein expression for 72 h at 27° C. The WRN protein was purified using the following protocol. The cell pellets were thawed and resuspended in buffer A (50 mM Tris, pH 7.5, 500 mM NaCl, 1 mM TCEP, 10% Glycerol) supplemented with 0.5% CHAPS, 1 mM [COMPOUND LEFT OUT], 1 μg/mL Leupeptin, 1 μg/mL Pepstatin, and the Pierce Universal Nuclease and cocktail tablet. Cleared lysates were loaded onto a Ni Sepharose™ excel column and washed with buffer A and bound protein was eluted with buffer A supplemented with 300 mM imidazole. The eluted protein was dialyzed against buffer A and digested by His-tagged TEV (1:5 ratio) overnight at 4° C. ZnCl2 was added into the sample at final 15 μM before loading onto a second Ni Sepharose™ excel column. Untagged WRN protein was eluted from the column with buffer A supplemented with 20 mM imidazole, dialyzed overnight into buffer B (50 mM Tris, pH 7.5, 1 mM TCEP, 10% Glycerol) supplemented with 150 mM NaCl and loaded onto a Heparin column. Proteins were eluted with a step gradient of buffer B supplemented with 150 mM, 200 mM, 300 mM and 500 mM NaCl. […]
`COc1cc(CN(C(=O)Cc2ccc(-c3ccc(F)cc3O)nc2)C2C=CS(=O)(=O)C2)ccn1` (single isomer, unassigned) [I-353] gave an IC50 of 10 to 50 µM.
With `CN(C)C(=O)C(C(=O)N(Cc1ccncc1)C1C=CS(=O)(=O)C1)c1ccc(-c2ccc(F)cc2)cc1` (single isomer, unassigned) [I-362, (2R**)-N′-[(3R*)-1,1-dioxo-2,3-dihydro-1lambda6-thiophen-3-yl]-2-{4′-fluoro-[1,1′-biphenyl]-4-yl}-N,N-dimethyl-N′-[(pyridin-4-yl)methyl]propanediamide] the IC50 was greater than 50 µM.
`COc1cc(CN(C(=O)C(OC)c2ccc(-c3ccc(F)cc3)cc2F)C2C=CS(=O)(=O)C2)ccn1` (single isomer, unassigned) [I-366, (2R*)-2-{3,4′-difluoro-[1,1′-biphenyl]-4-yl}-N-[(3R**)-1,1-dioxo-2,3-dihydro-1lambda6-thiophen-3-yl]-2-methoxy-N-[(2-methoxypyridin-4-yl)methyl]acetamide] showed an IC50 greater than 50 µM.
`CN(C)C(=O)C(C(=O)N(Cc1ccncc1)C1C=CS(=O)(=O)C1)c1ccc(-c2ccc(F)cc2)cc1` (single isomer, unassigned) [I-374, (2R**)-N′-[(3R*)-1,1-dioxo-2,3-dihydro-1lambda6-thiophen-3-yl]-2-{4′-fluoro-[1,1′-biphenyl]-4-yl}-N,N-dimethyl-N′-[(pyridin-4-yl)methyl]propanediamide] was tested, and the IC50 was greater than 50 µM.
`CN(C)C(=O)C(C(=O)N(Cc1ccncc1)C1C=CS(=O)(=O)C1)c1ccc(-c2ccc(F)cc2)cc1` (single isomer, unassigned) [I-375, (2R**)-N′-[(3R*)-1,1-dioxo-2,3-dihydro-1lambda6-thiophen-3-yl]-2-{4′-fluoro-[1,1′-biphenyl]-4-yl}-N,N-dimethyl-N′-[(pyridin-4-yl)methyl]propanediamide] was tested, and the IC50 was greater than 50 µM.
`CC(=O)N(C)C(C(=O)N(Cc1ccncc1)C1C=CS(=O)(=O)C1)c1ccc(-c2ccc(F)cc2)cc1` (single isomer, unassigned) [I-378] gave an IC50 greater than 50 µM.
For `COc1cc(CN(C(=O)Cc2ccc(C(F)(F)F)cc2)C2C=CS(=O)(=O)C2)ccn1` (single isomer, unassigned) [I-382], the IC50 was greater than 50 µM.
With `COc1cc(CN(C(=O)Cc2ccc(-c3ccc(F)c(F)c3)cc2F)C2C=CS(=O)(=O)C2)ccn1` (single isomer, unassigned) [I-400] the IC50 was greater than 50 µM.
`COc1cc(CN(C(=O)C(OC)c2ccc(-c3ccc(F)cc3)cc2F)C2C=CS(=O)(=O)C2)ccn1` (single isomer, unassigned) [I-404, (2R*)-2-{3,4′-difluoro-[1,1′-biphenyl]-4-yl}-N-[(3R**)-1,1-dioxo-2,3-dihydro-1lambda6-thiophen-3-yl]-2-methoxy-N-[(2-methoxypyridin-4-yl)methyl]acetamide] gave an IC50 greater than 50 µM.
Molecule `COc1cc(CN(C(=O)C(OC)c2ccc(-c3ccc(F)cc3)cc2F)C2C=CS(=O)(=O)C2)ccn1` (single isomer, unassigned) [I-405, (2R*)-2-{3,4′-difluoro-[1,1′-biphenyl]-4-yl}-N-[(3R**)-1,1-dioxo-2,3-dihydro-1lambda6-thiophen-3-yl]-2-methoxy-N-[(2-methoxypyridin-4-yl)methyl]acetamide] has an IC50 greater than 50 µM.
For `CC(C)(O)c1cc(CN(C(=O)Cc2ccc(-n3cccc3)cc2F)C2C=CS(=O)(=O)C2)ccn1` (single isomer, unassigned) [I-469], the IC50 was greater than 50 µM.
With `COC(C(=O)N(Cc1ccncc1)C1C=CS(=O)(=O)C1)c1ccc(-c2ccc(F)cc2)cc1` (single isomer, unassigned) [I-476, (2R*)-N-[(3R**)-1,1-dioxo-2,3-dihydro-1lambda6-thiophen-3-yl]-2-{4′-fluoro-[1,1′-biphenyl]-4-yl}-2-methoxy-N-[(pyridin-4-yl)methyl]acetamide] the IC50 was greater than 50 µM.
`O=C(Cc1ccc(-n2cccc2)cc1)N(Cc1ccccc1)C1C=CS(=O)(=O)C1` (single isomer, unassigned) [I-488] was tested, and the IC50 was greater than 50 µM.
`O=C(Cc1ccc(-n2cccc2)cc1)N(Cc1ccncc1)C1C=CS(=O)(=O)C1` (single isomer, unassigned) [I-490] showed an IC50 greater than 50 µM.
`O=C(Cc1ccc(-n2cccc2)cc1F)N(Cc1ccncc1)C1C=CS(=O)(=O)C1` (single isomer, unassigned) [I-520] gave an IC50 greater than 50 µM.
`O=C(NC(Cc1c[nH]c2ccccc12)C(=O)N(Cc1ccncc1)C1C=CS(=O)(=O)C1)c1ccc(F)cc1` (single isomer, unassigned) [I-561] showed an IC50 greater than 50 µM.
For `COC(C(=O)N(Cc1ccncc1)C1C=CS(=O)(=O)C1)c1ccc(-c2ccc(F)cc2)cc1` (single isomer, unassigned) [I-575, (2R*)-N-[(3R**)-1,1-dioxo-2,3-dihydro-1lambda6-thiophen-3-yl]-2-{4′-fluoro-[1,1′-biphenyl]-4-yl}-2-methoxy-N-[(pyridin-4-yl)methyl]acetamide], the IC50 was greater than 50 µM.
Molecule `COc1cc(CN(C(=O)C(C(=O)N(C)C)c2ccc(-c3ccc(F)c(F)c3)cc2F)C2C=CS(=O)(=O)C2)ccn1` (single isomer, unassigned) [I-577, (2R**)-N-[(3R*)-1,1-dioxo-2,3-dihydro-1lambda6-thiophen-3-yl]-N-[(2-methoxypyridin-4-yl)methyl]-N′,N′-dimethyl-2-{3,3′,4′-trifluoro-[1,1′-biphenyl]-4-yl}propanediamide] has an IC50 of less than 0.5 µM.
With `COC(C(=O)N(Cc1ccnc(C(C)(C)O)c1)C1C=CS(=O)(=O)C1)c1ccc(-c2ccc(F)c(F)c2)cc1F` (single isomer, unassigned) [I-578, (2R*)-N-[(3R**)-1,1-dioxo-2,3-dihydro-1lambda6-thiophen-3-yl]-N-{[2-(2-hydroxypropan-2-yl)pyridin-4-yl]methyl}-2-methoxy-2-{3,3′,4′-trifluoro-[1,1′-biphenyl]-4-yl}acetamide] the IC50 was 10 to 50 µM.
`O=C(Cn1cc(-c2ccc(F)cc2)cn1)N(Cc1nc(C2CC2)cs1)C1C=CS(=O)(=O)C1` (single isomer, unassigned) [I-601] showed an IC50 of 0.5 to 5 µM.
For `O=C(Cn1cc(-c2ccc(F)cc2)cn1)N(Cc1nc(C2CC2)cs1)C1C=CS(=O)(=O)C1` (single isomer, unassigned) [I-602], the IC50 was less than 0.5 µM.
`O=C(Cn1cc(-c2ccc(F)c(F)c2)cn1)N(Cc1nc(C2CC2)cs1)C1C=CS(=O)(=O)C1` (single isomer, unassigned) [I-604] showed an IC50 of 0.5 to 5 µM.
For `CC(C)(O)c1cc(CN(C(=O)Cn2ccc(-c3ccc(F)cc3)cc2=O)C2C=CS(=O)(=O)C2)ccn1` (single isomer, unassigned) [I-606], the IC50 was less than 0.5 µM.
With `Cc1cccn1-c1ccc2c(c1)CC(C(=O)N(Cc1ccnc(C(C)(C)O)c1)[C@@H]1C=CS(=O)(=O)C1)O2` (single isomer, unassigned) [I-607] the IC50 was less than 0.5 µM.
`CC(C)(O)c1cc(CN(C(=O)C(OC(F)F)c2ccc(-c3ccc(F)c(F)c3)cc2F)[C@@H]2C=CS(=O)(=O)C2)ccn1` (single isomer, unassigned) [I-632] showed an IC50 of less than 0.5 µM.
Work on `CN(C)C(=O)OC(C(=O)N(Cc1ccnc(C(C)(C)O)c1)[C@@H]1C=CS(=O)(=O)C1)c1ccc(-c2ccc(F)c(F)c2)cc1F` (single isomer, unassigned) [I-636] yielded an IC50 of 10 to 50 µM.
In the case of `CC(C)(O)c1cc(CN(C(=O)Cn2cc(-c3ccc(C(F)(F)F)cc3)cn2)C2C=CS(=O)(=O)C2)ccn1` (single isomer, unassigned) [I-638], the IC50 is reported as less than 0.5 µM.
